# Test system: UACC-62
# Experiment: Growth inhibition of human UACC62 cells assessed as cell growth at 10^-5 M after 48 hrs by SRB assay
# Assay type: functional
# Details: UACC-62, 48 h, read-out: Activity
compound,measurement,value
C/C(=N\O)c1ccc(OCC(=O)Nc2ccc(C(=O)/C=C/c3ccc(Cl)cc3)cc2)cc1,growth at 10 µM,37.5%
